The test concerns L1210 leukemia ip in BDF1 mice, survival T/C. As to the kind of experiment: NCI In Vivo Anticancer Drug Screen. Data for tumor model L1210 Leukemia (intraperitoneal) in B6D2F1 (BDF1) mice. The settings on record: endpoint: mean survival time, higher = longer survival. In outline: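 Transplantable tumor model; survival measured in treated vs vehicle control mice. Value = treated/control.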

Setting [1] is: dose: 100.0 mg/kg/injection, schedule: Q01DX009 (ip), vehicle: saline.
[2] abbreviates: dose: 100.0 mg/kg/injection, schedule: Q04DX003 (ip), vehicle: saline.
Setting [3] is: dose: 200.0 mg/kg/injection, schedule: Q01DX009 (ip), vehicle: saline.
The mark [4] stands for this setting: dose: 200.0 mg/kg/injection, schedule: Q04DX003 (ip), vehicle: saline.
Where [5] appears, read: dose: 400.0 mg/kg/injection, schedule: Q01DX009 (ip), vehicle: saline.
The mark [6] stands for this setting: dose: 400.0 mg/kg/injection, schedule: Q04DX003 (ip), vehicle: saline.
The mark [7] stands for this setting: dose: 100.0 mg/kg/injection, schedule: Q04DX002 (ip), vehicle: Klucel (hydroxypropylcellulose) (HPC).
[8] abbreviates: dose: 200.0 mg/kg/injection, schedule: Q04DX002 (ip), vehicle: Klucel (hydroxypropylcellulose) (HPC).
Setting [9] is: dose: 400.0 mg/kg/injection, schedule: Q04DX002 (ip), vehicle: Klucel (hydroxypropylcellulose) (HPC).
Where [10] appears, read: dose: 25.0 mg/kg/injection, schedule: Q01DX009 (ip), vehicle: saline.
Where [11] appears, read: dose: 50.0 mg/kg/injection, schedule: Q01DX009 (ip), vehicle: saline.
[12] abbreviates: dose: 50.0 mg/kg/injection, schedule: Q04DX003 (ip), vehicle: saline.
[13] abbreviates: dose: 100.0 mg/kg/injection, schedule: Q01DX001 (ip), vehicle: saline.
[14] abbreviates: dose: 200.0 mg/kg/injection, schedule: Q01DX001 (ip), vehicle: saline.
Where [15] appears, read: dose: 100.0 mg/kg/injection, schedule: Q01DX009 (ip), vehicle: Klucel (hydroxypropylcellulose) (HPC).
The mark [16] stands for this setting: dose: 200.0 mg/kg/injection, schedule: Q01DX009 (ip), vehicle: Klucel (hydroxypropylcellulose) (HPC).
Setting [17] is: dose: 400.0 mg/kg/injection, schedule: Q01DX009 (ip), vehicle: Klucel (hydroxypropylcellulose) (HPC).
The mark [18] stands for this setting: dose: 100.0 mg/kg/injection, schedule: Q04DX003 (ip), vehicle: Klucel (hydroxypropylcellulose) (HPC).
The mark [19] stands for this setting: dose: 200.0 mg/kg/injection, schedule: Q04DX003 (ip), vehicle: Klucel (hydroxypropylcellulose) (HPC).
Where [20] appears, read: dose: 400.0 mg/kg/injection, schedule: Q04DX003 (ip), vehicle: Klucel (hydroxypropylcellulose) (HPC).
[21] abbreviates: dose: 75.0 mg/kg/injection, schedule: Q01DX001 (ip), vehicle: other.
[22] abbreviates: dose: 150.0 mg/kg/injection, schedule: Q01DX001 (ip), vehicle: other.
Where [23] appears, read: dose: 300.0 mg/kg/injection, schedule: Q01DX001 (ip), vehicle: other.

SMILES strings stand for the structures. Several values for one entry are separate records, joined by “and”; a condition that tells them apart may be missing. Equal entries are not always repeated. Toxic doses and inconclusive results are not listed.

Regarding `CCOC(=O)c1cc(Cl)ccc1O`, the T/C reads like this: (dose: 100.0 mg/kg/injection, schedule: Q04DX002 (ip), vehicle: saline with Tween-80) 89 % of control; (dose: 200.0 mg/kg/injection, schedule: Q04DX002 (ip), vehicle: saline with Tween-80) 92 % of control; (dose: 400.0 mg/kg/injection, schedule: Q04DX002 (ip), vehicle: saline with Tween-80) 92 % of control.
On to `Cc1ccc(NC(=O)OCCOc2cc(C)c(Cl)c(C)c2)cc1[N+](=O)[O-]`, for which the T/C is 87 % of control (dose: 50.0 mg/kg/injection, schedule: Q01DX009 (ip), vehicle: saline with Tween-80); 101 % of control (dose: 100.0 mg/kg/injection, schedule: Q01DX009 (ip), vehicle: saline with Tween-80); 90 % of control (dose: 200.0 mg/kg/injection, schedule: Q01DX009 (ip), vehicle: saline with Tween-80).
On to `C/C(CCC(=O)O)=N/O`, for which the T/C is 101 % of control under setting [1]; 95 % of control under setting [2]; 97 % of control under setting [3]; 100 % of control under setting [4]; 105 % of control under setting [5]; 101 % of control under setting [6].
Regarding `CCCCCC[N+](C)(C)CCOC(=O)C1C2CC3OC(=O)C1C3C2` (stereo not given), the T/C under setting [2] is 97 % of control.
As to `CCOC(=S)SCC(=O)c1ccc(Br)cc1`, the T/C under setting [7] is 101 % of control, the T/C under setting [8] was 92 % of control and the T/C under setting [9] was 86 % of control.
For the compound `Nc1ccc(N=Nc2ccc(C(=O)Nc3ccc4cc(S(=O)(=O)O)ccc4c3)cc2)c(N)c1N=Nc1ccc(N=Nc2ccc(O)c(C(=O)O)c2)cc1`, the T/C was 94 % of control (dose: 25.0 mg/kg/injection, schedule: Q01DX001 (ip), vehicle: saline); 105 % of control under setting [10]; 109 % of control (dose: 25.0 mg/kg/injection, schedule: Q04DX003 (ip), vehicle: saline); 90 % of control (dose: 50.0 mg/kg/injection, schedule: Q01DX001 (ip), vehicle: saline); 94 % of control under setting [11]; 95 % of control under setting [12]. The T/C under setting [13] was 97 % of control, the T/C under setting [1] was 87 % of control and the T/C under setting [2] is 102 % of control.
In the case of `c1ccc2c[n+]3ccccc3cc2c1`, the T/C (dose: 6.25 mg/kg/injection, schedule: Q01DX009 (ip), vehicle: saline) was 103 % of control; the T/C (dose: 12.5 mg/kg/injection, schedule: Q01DX009 (ip), vehicle: saline) is 100 % of control; the T/C under setting [10] was 111 % of control.
For `CC(Br)(c1ccccc1)[P+](c1ccccc1)(c1ccccc1)c1ccccc1` (stereo not given), the T/C by setting is: (dose: 15.0 mg/kg/injection, schedule: Q01DX001 (ip), vehicle: carboxymethylcellulose (CMC)) 96 % of control; (dose: 30.0 mg/kg/injection, schedule: Q01DX001 (ip), vehicle: carboxymethylcellulose (CMC)) 101 % of control.
As for `COC(=O)C(N=O)C(=O)OC`, the T/C is 104 % of control under setting [13]; 109 % of control under setting [14]; 106 % of control (dose: 400.0 mg/kg/injection, schedule: Q01DX001 (ip), vehicle: saline).
With `CC(=O)c1ccc(Cc2ccc(C(C)=O)cc2)cc1`, the T/C under setting [15] was 98 % of control, the T/C under setting [16] is 98 % of control and the T/C under setting [17] is 106 % of control.
For the compound `O=C(Nc1ccccc1C(=O)N/N=C/c1c(O)ccc2ccccc12)c1ccccc1Cl`, the T/C was 95 % of control (dose: 100.0 mg/kg/injection, schedule: Q01DX001 (ip), vehicle: Klucel (hydroxypropylcellulose) (HPC)); 99 % of control and 103 % of control under setting [15]; 95 % of control and 104 % of control under setting [7]; 100 % of control under setting [18]; 93 % of control (dose: 200.0 mg/kg/injection, schedule: Q01DX001 (ip), vehicle: Klucel (hydroxypropylcellulose) (HPC)); 101 % of control and 102 % of control under setting [16]. Further, the T/C under setting [8] was 103 % of control; the T/C under setting [19] is 96 % of control; the T/C (dose: 400.0 mg/kg/injection, schedule: Q01DX001 (ip), vehicle: Klucel (hydroxypropylcellulose) (HPC)) was 95 % of control; the T/C under setting [17] was 94 % of control and 95 % of control; the T/C under setting [9] is 93 % of control and 92 % of control; the T/C under setting [20] is 96 % of control.
For `CC1OC2COC(C)OC2C(C(O)COC(=O)c2ccc([N+](=O)[O-])cc2)O1` (stereo not given), the T/C runs as follows: under setting [1], 98 % of control; under setting [2], 110 % of control; under setting [3], 98 % of control; under setting [4], 104 % of control; under setting [5], 103 % of control; under setting [6], 101 % of control.
`Cc1ccc(S(=O)(=O)N2CCc3ccccc3C=C2Br)cc1`: the T/C is 100 % of control (dose: 100.0 mg/kg/injection, schedule: Q01DX001 (ip), vehicle: carboxymethylcellulose (CMC)); 102 % of control (dose: 200.0 mg/kg/injection, schedule: Q01DX001 (ip), vehicle: carboxymethylcellulose (CMC)); 112 % of control (dose: 400.0 mg/kg/injection, schedule: Q01DX001 (ip), vehicle: carboxymethylcellulose (CMC)).
For `O=[N+]([O-])c1cccc(C=Nc2cc([N+](=O)[O-])ccc2O)c1`, the T/C under setting [15] was 88 % of control and the T/C under setting [16] was 93 % of control.
As to `NC(=S)N/N=C\c1ccccn1`, the T/C (dose: 6.25 mg/kg/injection, schedule: Q01DX009 (ip), vehicle: saline with Tween-80) is 123 % of control; the T/C (dose: 6.25 mg/kg/injection, schedule: Q04DX003 (ip), vehicle: saline with Tween-80) was 103 % of control; the T/C (dose: 8.0 mg/kg/injection, schedule: Q01DX009 (ip), vehicle: saline with Tween-80) was 160 % of control; the T/C (dose: 12.0 mg/kg/injection, schedule: Q01DX009 (ip), vehicle: saline with Tween-80) was 165 % of control; the T/C (dose: 12.5 mg/kg/injection, schedule: Q04DX003 (ip), vehicle: saline with Tween-80) is 102 % of control; the T/C (dose: 25.0 mg/kg/injection, schedule: Q04DX003 (ip), vehicle: saline with Tween-80) was 98 % of control.
With `Cc1nn(C)c2c(N)ncnc12`, the T/C by setting is: under setting [21], 100 % of control; under setting [22], 102 % of control; under setting [23], 98 % of control.
Turning to `CCOC(=O)c1occ(Cl)c1Cl`, the T/C by setting is: under setting [13], 107 % of control; under setting [14], 113 % of control.
With `CCC(C)OP(=S)(S)OC(C)CC` (stereo not given) (tested in a mixture with another compound), the T/C (dose: 100.0 mg/kg/injection, schedule: Q04DX002 (ip), vehicle: saline) was 96 % of control; the T/C (dose: 200.0 mg/kg/injection, schedule: Q04DX002 (ip), vehicle: saline) is 99 % of control; the T/C (dose: 400.0 mg/kg/injection, schedule: Q04DX002 (ip), vehicle: saline) was 96 % of control.
Take `C[Si](C)(CCCC(N)C(=O)O)O[Si](C)(C)CCCC(N)C(=O)O` (stereo not given): the T/C runs as follows: under setting [18], 98 % of control; under setting [19], 100 % of control; under setting [20], 98 % of control.
Regarding `CCCCNC(=S)Nc1ccccc1`, the T/C under setting [21] was 117 % of control, the T/C under setting [22] was 117 % of control and the T/C under setting [23] is 102 % of control.
For the compound `O/N=C(/C(=N/O)c1ccccc1)c1ccccc1.O/N=C(/C(=N/O)c1ccccc1)c1ccccc1.[Cl][Rh][Cl]`, the T/C by setting is: under setting [11], 94 % of control; under setting [12], 95 % of control; under setting [1], 89 % of control; under setting [2], 95 % of control; under setting [3], 95 % of control; under setting [4], 94 % of control. Besides, the T/C under setting [5] is 97 % of control and the T/C under setting [6] was 94 % of control.
In the case of `Nc1ccc2nc(NCCCO)c3ccccc3c2c1`, the T/C runs as follows: under setting [18], 107 % of control; under setting [19], 113 % of control; under setting [20], 102 % of control.

Values taken from PubChem BioAssay AID248 (DTP/NCI, 2004).
